Measured values: PubChem BioAssay AID330 (DTP/NCI, 2004)
Where “and” joins values, the source holds several entries; their conditions need not be identical. Equal entries are not always repeated. Toxic doses and inconclusive results are not listed.

Tested on: P388 leukemia ip, CD2F1 mice, survival T/C
Test: NCI In Vivo Anticancer Drug Screen. Data for tumor model P388 Leukemia (intraperitoneal) in CD2F1 (CDF1) mice
Details: endpoint: median survival time, higher = longer survival
Outline: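 Mice carrying the transplanted tumor received test compound or vehicle. Survival was recorded in each group, and the value is the treated-group measurement divided by that of the vehicle-treated control group.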

[1] = dose: 50.0 mg/kg/injection, schedule: Q01DX009 (ip), vehicle: saline with Tween-80
[2] = dose: 100.0 mg/kg/injection, schedule: Q01DX009 (ip), vehicle: saline with Tween-80
[3] = dose: 100.0 mg/kg/injection, schedule: Q01DX009 (ip), vehicle: Klucel (hydroxypropylcellulose) (HPC)
[4] = dose: 12.5 mg/kg/injection, schedule: Q01DX009 (ip), vehicle: Klucel (hydroxypropylcellulose) (HPC)
[5] = dose: 50.0 mg/kg/injection, schedule: Q01DX005 (ip), vehicle: Klucel (hydroxypropylcellulose) (HPC)
[6] = dose: 100.0 mg/kg/injection, schedule: Q01DX005 (ip), vehicle: Klucel (hydroxypropylcellulose) (HPC)

In the case of `O=CC(NC(=O)N(CCCl)N=O)C(O)C(O)C(O)CO` (centres undefined), the T/C (dose: 0.78 mg/kg/injection, schedule: Q01DX009 (ip), vehicle: saline) is reported as 156 % of control, the T/C (dose: 1.5 mg/kg/injection, schedule: Q01DX005 (ip), vehicle: water) is reported as 158 % of control and the T/C (dose: 1.5 mg/kg/injection, schedule: Q04DX003 (ip), vehicle: saline) is reported as 153 % of control. The T/C (dose: 1.56 mg/kg/injection, schedule: Q01DX009 (ip), vehicle: saline) was 195 % of control, the T/C (dose: 3.0 mg/kg/injection, schedule: Q01DX005 (ip), vehicle: saline) was 169 % of control and the T/C (dose: 3.0 mg/kg/injection, schedule: Q01DX005 (ip), vehicle: water) was 163 % of control and 187 % of control. The T/C (dose: 3.0 mg/kg/injection, schedule: Q04DX003 (ip), vehicle: saline) was 174 % of control, the T/C (dose: 3.12 mg/kg/injection, schedule: Q01DX009 (ip), vehicle: saline) was 263 % of control and the T/C (dose: 4.32 mg/kg/injection, schedule: Q04DX002 (ip), vehicle: saline) was 166 % of control. For the same molecule, the T/C (dose: 6.0 mg/kg/injection, schedule: Q01DX001 (ip), vehicle: saline) was 157 % of control, the T/C (dose: 6.0 mg/kg/injection, schedule: Q01DX001 (iv), vehicle: saline) was 109 % of control and the T/C (dose: 6.0 mg/kg/injection, schedule: Q01DX005 (ip), vehicle: saline) was 205 % of control. For the same molecule, the T/C (dose: 6.0 mg/kg/injection, schedule: Q01DX005 (ip), vehicle: water) was 199 % of control and 264 % of control, the T/C (dose: 6.0 mg/kg/injection, schedule: Q01DX005 (iv), vehicle: saline) was 192 % of control and the T/C (dose: 6.0 mg/kg/injection, schedule: Q04DX003 (ip), vehicle: saline) was 205 % of control. For the same molecule, the T/C (dose: 7.2 mg/kg/injection, schedule: Q04DX002 (ip), vehicle: saline) was 169 % of control, the T/C (dose: 12.0 mg/kg/injection, schedule: Q01DX001 (ip), vehicle: saline) was 212 % of control and the T/C (dose: 12.0 mg/kg/injection, schedule: Q01DX005 (ip), vehicle: saline) was 258 % of control. The T/C (dose: 12.0 mg/kg/injection, schedule: Q01DX005 (ip), vehicle: water) was 265 % of control and 91 % of control, the T/C (dose: 12.0 mg/kg/injection, schedule: Q01DX005 (iv), vehicle: saline) was 119 % of control and the T/C (dose: 12.0 mg/kg/injection, schedule: Q04DX002 (ip), vehicle: saline) was 212 % of control. The T/C (dose: 12.0 mg/kg/injection, schedule: Q04DX003 (ip), vehicle: saline) was 285 % of control and 371 % of control and 401 % of control, the T/C (dose: 18.0 mg/kg/injection, schedule: Q04DX003 (ip), vehicle: saline) was 153 % of control and 175 % of control and the T/C (dose: 20.0 mg/kg/injection, schedule: Q04DX002 (ip), vehicle: saline) was 287 % of control. For the same molecule, the T/C (dose: 24.0 mg/kg/injection, schedule: Q01DX001 (ip), vehicle: saline) was 277 % of control, the T/C (dose: 24.0 mg/kg/injection, schedule: Q01DX001 (iv), vehicle: saline) was 166 % of control and the T/C (dose: 27.0 mg/kg/injection, schedule: Q04DX003 (ip), vehicle: saline) was 96 % of control. For the same molecule, the T/C (dose: 40.0 mg/kg/injection, schedule: Q04DX003 (ip), vehicle: saline) was 74 % of control and 98 % of control.
`O=c1c2ccccc2nc2ccc(Cl)nn12` was tested, and the T/C [1] was 95 % of control and the T/C [2] was 100 % of control.
`COc1ccc(Cl)cc1C` was tested, and the T/C (dose: 12.5 mg/kg/injection, schedule: Q01DX009 (ip), vehicle: distilled water + Tween-80) was 99 % of control, the T/C (dose: 25.0 mg/kg/injection, schedule: Q01DX009 (ip), vehicle: distilled water + Tween-80) was 97 % of control and the T/C (dose: 50.0 mg/kg/injection, schedule: Q01DX009 (ip), vehicle: distilled water + Tween-80) was 98 % of control. For the same molecule, the T/C (dose: 100.0 mg/kg/injection, schedule: Q01DX009 (ip), vehicle: distilled water + Tween-80) was 98 % of control, the T/C (dose: 200.0 mg/kg/injection, schedule: Q01DX009 (ip), vehicle: distilled water + Tween-80) was 108 % of control and the T/C (dose: 400.0 mg/kg/injection, schedule: Q01DX009 (ip), vehicle: distilled water + Tween-80) was 116 % of control.
With `FC(F)(F)c1cccc(C(OCC2CO2)(C(F)(F)F)C(F)(F)F)c1` (centres undefined) the T/C (dose: 50.0 mg/kg/injection, schedule: Q01DX009 (ip), vehicle: Klucel (hydroxypropylcellulose) (HPC)) was 99 % of control, the T/C [3] was 96 % of control and the T/C (dose: 200.0 mg/kg/injection, schedule: Q01DX009 (ip), vehicle: Klucel (hydroxypropylcellulose) (HPC)) was 102 % of control.
For `O=C(NN(Cn1c(=S)sc2ccccc21)Cn1c(=S)sc2ccccc21)c1ccncc1`, the T/C (dose: 3.12 mg/kg/injection, schedule: Q01DX009 (ip), vehicle: Klucel (hydroxypropylcellulose) (HPC)) was 105 % of control and 98 % of control, the T/C (dose: 6.25 mg/kg/injection, schedule: Q01DX009 (ip), vehicle: Klucel (hydroxypropylcellulose) (HPC)) was 93 % of control and 94 % of control and the T/C [4] was 88 % of control and 92 % of control.
`S=C(Nc1ccccc1)P(c1ccccc1)c1ccccc1` was tested, and the T/C [5] was 111 % of control and 99 % of control, the T/C [6] was 116 % of control and 89 % of control and the T/C (dose: 200.0 mg/kg/injection, schedule: Q01DX005 (ip), vehicle: Klucel (hydroxypropylcellulose) (HPC)) was 111 % of control and 89 % of control.
With `COc1cc2oc(=O)ccc2cc1[C@@H]1OC(=O)C2(C)O[C@@H]12` (some centres undefined) the T/C (dose: 2.5 mg/kg/injection, schedule: Q01DX009 (ip), vehicle: saline) was 112 % of control, the T/C (dose: 5.0 mg/kg/injection, schedule: Q01DX009 (ip), vehicle: saline) was 93 % of control and the T/C (dose: 6.0 mg/kg/injection, schedule: Q01DX009 (ip), vehicle: Klucel (hydroxypropylcellulose) (HPC)) was 107 % of control. For the same molecule, the T/C (dose: 6.0 mg/kg/injection, schedule: Q01DX009 (ip), vehicle: saline with Tween-80) was 110 % of control, the T/C (dose: 8.0 mg/kg/injection, schedule: Q01DX009 (ip), vehicle: Klucel (hydroxypropylcellulose) (HPC)) was 114 % of control and the T/C (dose: 8.0 mg/kg/injection, schedule: Q01DX009 (ip), vehicle: saline with Tween-80) was 117 % of control. The T/C (dose: 10.0 mg/kg/injection, schedule: Q01DX009 (ip), vehicle: Klucel (hydroxypropylcellulose) (HPC)) was 105 % of control, the T/C (dose: 10.0 mg/kg/injection, schedule: Q01DX009 (ip), vehicle: saline with Tween-80) was 110 % of control and the T/C (dose: 12.0 mg/kg/injection, schedule: Q01DX009 (ip), vehicle: Klucel (hydroxypropylcellulose) (HPC)) was 103 % of control. For the same molecule, the T/C (dose: 12.0 mg/kg/injection, schedule: Q01DX009 (ip), vehicle: saline with Tween-80) was 110 % of control.
In the case of `O=[N+]([O-])c1cccc(N2CN(c3ccccc3)NC(c3ccccc3)=N2)c1`, the T/C (dose: 50.0 mg/kg/injection, schedule: Q04DX003 (ip), vehicle: saline with Tween-80) is reported as 90 % of control and the T/C (dose: 200.0 mg/kg/injection, schedule: Q04DX003 (ip), vehicle: saline with Tween-80) is reported as 107 % of control.
`COc1ccc(C)cc1N=NC1C(=O)N(C(=O)CC(=O)Nc2ccccc2Cl)N=C1C` (centres undefined) was tested, and the T/C [5] was 96 % of control and the T/C [6] was 95 % of control.
`CC1(C)CC(=O)C(CC2=C(N)CC(C)(C)CC2=O)=C(N)C1` was tested, and the T/C (dose: 25.0 mg/kg/injection, schedule: Q04DX003 (ip), vehicle: Klucel (hydroxypropylcellulose) (HPC)) was 95 % of control, the T/C (dose: 50.0 mg/kg/injection, schedule: Q04DX003 (ip), vehicle: Klucel (hydroxypropylcellulose) (HPC)) was 101 % of control and the T/C (dose: 100.0 mg/kg/injection, schedule: Q04DX003 (ip), vehicle: Klucel (hydroxypropylcellulose) (HPC)) was 94 % of control. For the same molecule, the T/C (dose: 200.0 mg/kg/injection, schedule: Q04DX003 (ip), vehicle: Klucel (hydroxypropylcellulose) (HPC)) was 95 % of control.
`C[Si](C)(C)OSc1ccccc1[N+](=O)[O-]` was tested, and the T/C [4] was 121 % of control, the T/C [1] was 120 % of control and the T/C [3] was 122 % of control. The T/C [2] was 114 % of control and the T/C (dose: 200.0 mg/kg/injection, schedule: Q01DX009 (ip), vehicle: saline with Tween-80) was 115 % of control.
For `CC(C)N1CCOC(c2cccc(C(F)(F)F)c2)C1` (centres undefined), the T/C (dose: 50.0 mg/kg/injection, schedule: Q01DX009 (ip), vehicle: saline) was 101 % of control and the T/C (dose: 100.0 mg/kg/injection, schedule: Q01DX009 (ip), vehicle: saline) was 99 % of control.
`CCC(CNc1cc(OC)cc2cccnc12)NC1CCCCC1` (centres undefined) was tested, and the T/C (dose: 12.5 mg/kg/injection, schedule: Q01DX005 (ip), vehicle: saline) was 102 % of control, the T/C (dose: 25.0 mg/kg/injection, schedule: Q01DX005 (ip), vehicle: saline) was 99 % of control and the T/C (dose: 50.0 mg/kg/injection, schedule: Q01DX005 (ip), vehicle: saline) was 100 % of control and 102 % of control.
In the case of `COc1c2occc2c(N=Cc2ccc([N+](=O)[O-])cc2)c2ccc(=O)oc12`, the T/C (dose: 0.38 mg/kg/injection, schedule: Q01DX005 (ip), vehicle: saline with Tween-80) is reported as 99 % of control, the T/C (dose: 0.75 mg/kg/injection, schedule: Q01DX005 (ip), vehicle: saline with Tween-80) is reported as 98 % of control and the T/C (dose: 1.5 mg/kg/injection, schedule: Q01DX005 (ip), vehicle: saline with Tween-80) is reported as 90 % of control. For the same molecule, the T/C (dose: 6.25 mg/kg/injection, schedule: Q01DX005 (ip), vehicle: saline with Tween-80) was 87 % of control, the T/C (dose: 100.0 mg/kg/injection, schedule: Q01DX005 (ip), vehicle: saline with Tween-80) was 87 % of control and the T/C (dose: 200.0 mg/kg/injection, schedule: Q01DX005 (ip), vehicle: saline with Tween-80) was 98 % of control.
